The source of these data is patent US20250122218A1, “MODULATORS OF CYSTIC FIBROSIS TRANSMEMBRANE CONDUCTANCE REGULATOR” (Vertex Pharmaceuticals Incorporated, priority 2022, published 2025).

The target of the assay is T1, CFTR in F508del/MF-HBE cells (Homo sapiens, UniProt P13569, DEL508-508).
T1 construct: human bronchial epithelial (HBE) cells derived from CF subjects heterozygous for F508del and a minimal function CFTR mutation; endogenous in cells; host or cells: primary human bronchial epithelial cells from CF subjects (F508del/MF-HBE)
As to the kind of experiment: Ussing chamber assay of CFTR-mediated short-circuit currents (identification of potentiator compounds). Type of assay: cell-based. The settings on record: potentiator incubated 18-24 hours at 37° C. in combination with 10 μM corrector, in the presence of 20% human serum, CFTR-mediated ISC. Summed up: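 F508del/MF-HBE cultures were preincubated 18-24 h at 37° C with potentiator plus 10 μM of a fixed corrector compound in 20% human serum; compounds were kept present during measurement. ISC was recorded under voltage clamp (0 mV, 37° C, amiloride apical) and taken as the 20 μM forskolin peak minus the current after inhibitor cocktail.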

Each structure is given as a SMILES string.

T1 sequence (P13569 with tags, fused parts or gaps DEL508-508): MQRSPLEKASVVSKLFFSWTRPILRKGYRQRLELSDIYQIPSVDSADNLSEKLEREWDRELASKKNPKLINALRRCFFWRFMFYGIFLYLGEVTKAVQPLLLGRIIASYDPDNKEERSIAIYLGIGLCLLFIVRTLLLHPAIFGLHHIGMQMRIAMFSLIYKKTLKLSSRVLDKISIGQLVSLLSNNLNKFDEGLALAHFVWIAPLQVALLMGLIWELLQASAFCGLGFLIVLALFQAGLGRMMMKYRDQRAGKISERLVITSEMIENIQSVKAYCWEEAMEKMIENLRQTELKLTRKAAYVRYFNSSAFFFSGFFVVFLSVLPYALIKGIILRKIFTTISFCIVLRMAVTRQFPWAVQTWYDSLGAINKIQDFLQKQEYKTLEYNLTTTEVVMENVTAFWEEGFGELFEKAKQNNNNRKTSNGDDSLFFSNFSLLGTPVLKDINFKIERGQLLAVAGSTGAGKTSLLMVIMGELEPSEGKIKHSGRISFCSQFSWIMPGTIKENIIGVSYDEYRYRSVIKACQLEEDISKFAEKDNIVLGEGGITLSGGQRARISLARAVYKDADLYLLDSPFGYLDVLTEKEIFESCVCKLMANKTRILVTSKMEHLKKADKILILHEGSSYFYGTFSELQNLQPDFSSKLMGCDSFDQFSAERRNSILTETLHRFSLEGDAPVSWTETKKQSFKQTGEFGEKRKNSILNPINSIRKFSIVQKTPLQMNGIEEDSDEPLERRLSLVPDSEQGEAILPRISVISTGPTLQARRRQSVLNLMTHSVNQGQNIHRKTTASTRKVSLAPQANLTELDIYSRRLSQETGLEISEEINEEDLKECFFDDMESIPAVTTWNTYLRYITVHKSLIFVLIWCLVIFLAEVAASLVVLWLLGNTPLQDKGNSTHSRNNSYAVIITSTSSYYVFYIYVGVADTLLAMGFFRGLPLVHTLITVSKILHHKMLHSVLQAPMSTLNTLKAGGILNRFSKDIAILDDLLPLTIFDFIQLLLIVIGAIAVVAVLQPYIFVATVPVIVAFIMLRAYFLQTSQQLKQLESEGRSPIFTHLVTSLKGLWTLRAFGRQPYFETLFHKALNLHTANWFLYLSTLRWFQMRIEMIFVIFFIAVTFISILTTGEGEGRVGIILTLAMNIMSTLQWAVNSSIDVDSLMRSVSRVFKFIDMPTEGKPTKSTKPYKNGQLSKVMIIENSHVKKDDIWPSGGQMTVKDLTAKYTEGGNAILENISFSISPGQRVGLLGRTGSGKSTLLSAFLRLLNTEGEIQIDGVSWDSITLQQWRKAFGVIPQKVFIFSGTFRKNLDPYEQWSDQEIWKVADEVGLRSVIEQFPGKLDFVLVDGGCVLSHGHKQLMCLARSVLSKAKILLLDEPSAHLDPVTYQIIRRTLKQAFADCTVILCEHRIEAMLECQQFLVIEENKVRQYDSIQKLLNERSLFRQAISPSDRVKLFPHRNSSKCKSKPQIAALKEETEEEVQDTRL

For orientation: EC50 means the concentration at which the effect is half-maximal. As to `CC1(N2CCCCC[C@](O)(C(F)(F)F)C3=NN=C(O3)c3nc(c(C(F)(F)F)cc3N)C2=O)CCCCC1` [Compound 219, (6R)-17-amino-6-hydroxy-12-(1-methylcyclohexyl)-6,15-bis(trifluoromethyl)-19-oxa-3,4,12,18-tetrazatricyclo [12.3.1.12,5] nonadeca-1(18),2,4,14,16-pentaen-13-one], the EC50 was < 500 nM.
The same measure for `Nc1cc(C(F)(F)F)c2nc1-c1nnc(o1)[C@@](O)(C(F)(F)F)CCCCCN(Cc1cccc(C3(C(F)(F)F)CC3)c1)C2=O` [Compound 220, (6R)-17-amino-6-hydroxy-6,15-bis(trifluoromethyl)-12-[[3-[1-(trifluoromethyl)cyclopropyl]phenyl]methyl]-19-oxa-3,4,12,18-tetrazatricyclo [12.3.1.12,5] nonadeca-1(18),2,4,14,16-pentaen-13-one]: < 500 nM; for `CC(C)(C)c1cccc(CN2CCCCC[C@](O)(C(F)(F)F)C3=NN=C(O3)c3nc(c(C(F)(F)F)cc3N)C2=O)c1` [Compound 221, (6R)-17-amino-12-[(3-tert-butylphenyl)methyl]-6-hydroxy-6,15-bis(trifluoromethyl)-19-oxa-3,4,12,18-tetrazatricyclo [12.3.1.12,5] nonadeca-1(18),2,4,14,16-pentaen-13-one]: < 500 nM; for `CC(C)(c1cccc(CN2CCCCC[C@](O)(C(F)(F)F)C3=NN=C(O3)c3nc(c(C(F)(F)F)cc3N)C2=O)c1)C(F)(F)F` [Compound 222, (6R)-17-amino-6-hydroxy-12-[[3-(2,2,2-trifluoro-1,1-dimethyl-ethyl)phenyl]methyl]-6,15-bis(trifluoromethyl)-19-oxa-3,4,12,18-tetrazatricyclo [12.3.1.12,5] nonadeca-1(18),2,4,14,16-pentaen-13-one]: < 500 nM.
For `Nc1cc(C(F)(F)F)c2nc1-c1nnc(o1)[C@@](O)(C(F)(F)F)CCCCCN(Cc1cccc(OCC3(C(F)(F)F)CC3)c1)C2=O` [Compound 223, (6R)-17-amino-6-hydroxy-6,15-bis(trifluoromethyl)-12-[[3-[[1-(trifluoromethyl)cyclopropyl]methoxy]phenyl]methyl]-19-oxa-3,4,12,18-tetrazatricyclo [12.3.1.12,5] nonadeca-1(18),2,4,14,16-pentaen-13-one], the EC50 was < 500 nM.
Regarding `Nc1cc(C(F)(F)F)c2nc1-c1nnc(o1)[C@@](O)(C(F)(F)F)CCCCCN(Cc1cccc(C3CC(F)(F)C3)c1)C2=O` [Compound 224, (6R)-17-amino-12-[[3-(3,3-difluorocyclobutyl)phenyl]methyl]-6-hydroxy-6,15-bis(trifluoromethyl)-19-oxa-3,4,12,18-tetrazatricyclo [12.3.1.12,5] nonadeca-1(18),2,4,14,16-pentaen-13-one], the EC50 was < 500 nM.
With `Cc1cc(C)cc(CN2CCCCC[C@](O)(C(F)(F)F)C3=NN=C(O3)c3nc(c(C(F)(F)F)cc3N)C2=O)c1` [Compound 225, (6R)-17-amino-12-[(3,5-dimethylphenyl)methyl]-6-hydroxy-6,15-bis(trifluoromethyl)-19-oxa-3,4,12,18-tetrazatricyclo [12.3.1.12,5] nonadeca-1(18),2,4,14,16-pentaen-13-one], the concentration for a half-maximal effect (EC50) is < 500 nM.
The same measure for `CC(C)(C)C1(N2CCCCC[C@](O)(C(F)(F)F)C3=NN=C(O3)c3nc(c(C(F)(F)F)cc3N)C2=O)CC1` [Compound 226, (6R)-17-amino-12-(1-tert-butylcyclopropyl)-6-hydroxy-6,15-bis(trifluoromethyl)-19-oxa-3,4,12,18-tetrazatricyclo [12.3.1.12,5] nonadeca-1(18),2,4,14,16-pentaen-13-one]: < 500 nM; for `Nc1cc(C(F)(F)F)c2nc1-c1nnc(o1)[C@@](O)(C(F)(F)F)CCCCCN(Cc1cccc(C3CCC3)c1)C2=O` [Compound 229, (6R)-17-amino-12-[(3-cyclobutylphenyl)methyl]-6-hydroxy-6,15-bis(trifluoromethyl)-19-oxa-3,4,12,18-tetrazatricyclo [12.3.1.12,5] nonadeca-1(18),2,4,14,16-pentaen-13-one]: < 500 nM.
For `COc1cc(CN2CCCCC[C@](O)(C(F)(F)F)C3=NN=C(O3)c3nc(c(C(F)(F)F)cc3N)C2=O)ccc1C(F)(F)F` [Compound 230, (6R)-17-amino-6-hydroxy-12-[[3-methoxy-4-(trifluoromethyl)phenyl]methyl]-6,15-bis(trifluoromethyl)-19-oxa-3,4,12,18-tetrazatricyclo [12.3.1.12,5] nonadeca-1(18),2,4,14,16-pentaen-13-one], the EC50 is < 500 nM.
Take `Nc1cc(C(F)(F)F)c2nc1-c1nnc(o1)[C@@](O)(C(F)(F)F)CCCCCN(Cc1cccc(C3CC3)c1)C2=O` [Compound 231, (6R)-17-amino-12-[(3-cyclopropylphenyl)methyl]-6-hydroxy-6,15-bis(trifluoromethyl)-19-oxa-3,4,12,18-tetrazatricyclo [12.3.1.12,5] nonadeca-1(18),2,4,14,16-pentaen-13-one]: the EC50 was < 500 nM.
`Nc1cc(C(F)(F)F)c2nc1-c1nnc(o1)[C@@](O)(C(F)(F)F)CCCCCN(Cc1cccc(C34CC(C3)C4)c1)C2=O` [Compound 240]: the EC50 is < 500 nM.
Regarding `Nc1cc(C(F)(F)F)c2nc1-c1nnc(o1)[C@@](O)(C(F)(F)F)CCCCCN(Cc1cccc(C(F)F)c1)C2=O` [Compound 241, (6R)-17-amino-12-[[3-(difluoromethyl)phenyl]methyl]-6-hydroxy-6,15-bis(trifluoromethyl)-19-oxa-3,4,12,18-tetrazatricyclo [12.3.1.12,5] nonadeca-1(18),2,4,14,16-pentaen-13-one], the EC50 was < 500 nM.
As to `Nc1cc(C(F)(F)F)c2nc1-c1nnc(o1)[C@@](O)(C(F)(F)F)CCCCCN(CC1CCC(F)(F)CC1)C2=O` [Compound 242, (6R)-17-amino-12-[(4,4-difluorocyclohexyl)methyl]-6-hydroxy-6,15-bis(trifluoromethyl)-19-oxa-3,4,12,18-tetrazatricyclo [12.3.1.12,5] nonadeca-1(18),2,4,14,16-pentaen-13-one], the concentration for a half-maximal effect (EC50) is < 500 nM.
For the compound `Nc1cc(C(F)(F)F)c2nc1-c1nnc(o1)[C@@](O)(C(F)(F)F)CCCCCN(CC1CC(F)(F)C1)C2=O` [Compound 243, (6R)-17-amino-12-[(3,3-difluorocyclobutyl)methyl]-6-hydroxy-6,15-bis(trifluoromethyl)-19-oxa-3,4,12,18-tetrazatricyclo [12.3.1.12,5] nonadeca-1(18),2,4,14,16-pentaen-13-one], the EC50 was < 500 nM.
Regarding `CC(C)(O)c1cccc(CN2CCCCC[C@](O)(C(F)(F)F)C3=NN=C(O3)c3nc(c(C(F)(F)F)cc3N)C2=O)c1` [Compound 244, (6R)-17-amino-6-hydroxy-12-[[3-(1-hydroxy-1-methyl-ethyl)phenyl]methyl]-6,15-bis(trifluoromethyl)-19-oxa-3,4,12,18-tetrazatricyclo [12.3.1.12,5] nonadeca-1(18),2,4,14,16-pentaen-13-one], the EC50 was < 500 nM.
The same measure for `Nc1cc(C(F)(F)F)c2nc1-c1nnc(o1)[C@@](O)(C(F)(F)F)CCCCCN(CC1C3(CC3)C13CC3)C2=O` [Compound 245, (6R)-17-amino-12-(dispiro[2.0.24.13]heptan-7-ylmethyl)-6-hydroxy-6,15-bis(trifluoromethyl)-19-oxa-3,4,12,18-tetrazatricyclo [12.3.1.12,5] nonadeca-1(18),2,4,14,16-pentaen-13-one]: < 500 nM; for `Nc1cc(C(F)(F)F)c2nc1-c1nnc(o1)[C@@](O)(C(F)(F)F)CCCCCN(CC1C3CCCCC31)C2=O` (stereo partly drawn) [Compound 246, (6R)-17-amino-6-hydroxy-12-(norcaran-7-ylmethyl)-6,15-bis(trifluoromethyl)-19-oxa-3,4,12,18-tetrazatricyclo [12.3.1.12,5] nonadeca-1(18),2,4,14,16-pentaen-13-one]: < 500 nM; for `Nc1cc(C(F)(F)F)c2nc1-c1nnc(o1)[C@@](O)(C(F)(F)F)CCCCCN(Cc1cc(F)cc(C3CC3)c1)C2=O` [Compound 247, (6R)-17-amino-12-[(3-cyclopropyl-5-fluoro-phenyl)methyl]-6-hydroxy-6,15-bis(trifluoromethyl)-19-oxa-3,4,12,18-tetrazatricyclo [12.3.1.12,5] nonadeca-1(18),2,4,14,16-pentaen-13-one]: < 500 nM.
For the compound `Nc1cc(C(F)(F)F)c2nc1-c1nnc(o1)[C@@](O)(C(F)(F)F)CCCCCN(Cc1cc(F)cc(C3CCC3)c1)C2=O` [Compound 248, (6R)-17-amino-12-[(3-cyclobutyl-5-fluoro-phenyl)methyl]-6-hydroxy-6,15-bis(trifluoromethyl)-19-oxa-3,4,12,18-tetrazatricyclo [12.3.1.12,5] nonadeca-1(18),2,4,14,16-pentaen-13-one], the EC50 was < 500 nM.
For the compound `Nc1cc(C(F)(F)F)c2nc1-c1nnc(o1)[C@@](O)(C(F)(F)F)CCCCCN(CC(C1CC1)C1CC1)C2=O` [Compound 251, (6R)-17-amino-12-(2,2-dicyclopropylethyl)-6-hydroxy-6,15-bis(trifluoromethyl)-19-oxa-3,4,12,18-tetrazatricyclo [12.3.1.12,5] nonadeca-1(18),2,4,14,16-pentaen-13-one], the EC50 is > 1000 nM.
For the compound `Nc1cc(C(F)(F)F)c2nc1-c1nnc(o1)[C@@](O)(C(F)(F)F)CCCCCN(CC1CC13CC3)C2=O` (stereo partly drawn) [Compound 252, (6R)-17-amino-6-hydroxy-12-(spiro[2.2]pentan-2-ylmethyl)-6,15-bis(trifluoromethyl)-19-oxa-3,4,12,18-tetrazatricyclo [12.3.1.12,5] nonadeca-1(18),2,4,14,16-pentaen-13-one], the EC50 is < 500 nM.
